Experimental data as given in ChEMBL document CHEMBL1128725, “Design and synthesis of 1-heteroaryl-3-(1-benzyl-4-piperidinyl)propan-1-one derivatives as potent, selective acetylcholinesterase inhibitors” (J Med Chem, 1995).

Tests used:
Cholinesterase = Cholinesterase (Homo sapiens, UniProt P06276)
Description: Concentration required to inhibit 50% of Butyrylcholinesterase obtained from human serum was determined in vitro

Acetylcholinesterase = Acetylcholinesterase (Homo sapiens, UniProt P22303)
Acetylcholinesterase, sequence (P22303 whole entry): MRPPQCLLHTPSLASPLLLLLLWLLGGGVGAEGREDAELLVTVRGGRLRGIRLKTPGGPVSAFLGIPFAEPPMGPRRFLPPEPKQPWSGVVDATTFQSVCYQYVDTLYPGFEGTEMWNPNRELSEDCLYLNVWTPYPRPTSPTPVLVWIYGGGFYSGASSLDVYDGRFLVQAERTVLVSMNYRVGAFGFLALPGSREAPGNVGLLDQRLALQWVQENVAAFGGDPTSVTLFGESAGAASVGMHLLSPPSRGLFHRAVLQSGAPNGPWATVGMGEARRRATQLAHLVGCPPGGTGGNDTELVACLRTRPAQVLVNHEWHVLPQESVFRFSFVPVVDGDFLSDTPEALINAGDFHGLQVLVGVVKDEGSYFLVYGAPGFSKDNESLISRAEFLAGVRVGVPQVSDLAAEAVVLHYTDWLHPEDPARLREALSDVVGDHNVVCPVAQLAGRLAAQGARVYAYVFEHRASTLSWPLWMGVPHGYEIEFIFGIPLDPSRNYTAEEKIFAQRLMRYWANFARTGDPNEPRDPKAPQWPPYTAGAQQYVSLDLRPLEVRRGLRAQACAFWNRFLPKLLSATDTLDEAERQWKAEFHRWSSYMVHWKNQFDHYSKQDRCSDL
Description: Concentration required to inhibit 50% of Acetylcholinesterase obtained from human erythrocytes was determined in vitro

Cholinesterase, sequence (P06276 whole entry): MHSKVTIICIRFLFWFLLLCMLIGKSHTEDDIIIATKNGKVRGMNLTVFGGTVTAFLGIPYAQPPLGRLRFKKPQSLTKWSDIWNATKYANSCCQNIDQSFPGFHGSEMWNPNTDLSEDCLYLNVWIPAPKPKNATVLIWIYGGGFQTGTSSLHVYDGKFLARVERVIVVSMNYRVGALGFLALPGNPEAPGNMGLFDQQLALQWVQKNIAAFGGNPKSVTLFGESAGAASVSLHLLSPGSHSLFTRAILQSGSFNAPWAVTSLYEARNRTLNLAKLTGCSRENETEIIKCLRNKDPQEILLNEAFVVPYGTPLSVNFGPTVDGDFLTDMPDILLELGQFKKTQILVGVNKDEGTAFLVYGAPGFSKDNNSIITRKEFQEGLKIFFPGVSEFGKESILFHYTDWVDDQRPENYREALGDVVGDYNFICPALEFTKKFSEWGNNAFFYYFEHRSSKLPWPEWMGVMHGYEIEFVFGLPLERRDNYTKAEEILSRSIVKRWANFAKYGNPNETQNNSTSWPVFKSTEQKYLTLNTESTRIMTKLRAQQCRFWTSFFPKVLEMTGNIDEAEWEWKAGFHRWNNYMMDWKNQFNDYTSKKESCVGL

SMILES | IC50 (Cholinesterase) [nM] | IC50 (Acetylcholinesterase) [nM]
O=C(CCC1CCN(Cc2ccccc2)CC1)c1ccc2[nH]c(-c3ccccc3)nc2c1 | 890 | 33
Cc1nc2cc(C(=O)CCC3CCN(Cc4ccccc4)CC3)ccc2[nH]1 | 6200 | 12
Cc1nc2ccc(C(=O)CCC3CCN(Cc4ccccc4)CC3)cc2s1 | 3400 | 6.8
O=C(CCC1CCN(Cc2ccccc2)CC1)c1ccccc1 | 4300 | 
CCn1c(C)nc2cc(C(=O)CCC3CCN(Cc4ccccc4)CC3)ccc21 | 4200 | 4.3
O=C(CCC1CCN(Cc2ccccc2)CC1)c1ccc2c(c1)OCCO2 | 4800 | 30
